Laboratory results: patent US9809604B2, “DGAT1 inhibitor and preparation method and use thereof” (Qingdao Huanghai Pharmaceutical Co., Ltd., priority 2013, dated 2017)
Where two headings read alike, the source gives them in different places.

Molecular target: T1, DGAT1 (Homo sapiens, UniProt O75907)
T1 sequence (O75907 1-488): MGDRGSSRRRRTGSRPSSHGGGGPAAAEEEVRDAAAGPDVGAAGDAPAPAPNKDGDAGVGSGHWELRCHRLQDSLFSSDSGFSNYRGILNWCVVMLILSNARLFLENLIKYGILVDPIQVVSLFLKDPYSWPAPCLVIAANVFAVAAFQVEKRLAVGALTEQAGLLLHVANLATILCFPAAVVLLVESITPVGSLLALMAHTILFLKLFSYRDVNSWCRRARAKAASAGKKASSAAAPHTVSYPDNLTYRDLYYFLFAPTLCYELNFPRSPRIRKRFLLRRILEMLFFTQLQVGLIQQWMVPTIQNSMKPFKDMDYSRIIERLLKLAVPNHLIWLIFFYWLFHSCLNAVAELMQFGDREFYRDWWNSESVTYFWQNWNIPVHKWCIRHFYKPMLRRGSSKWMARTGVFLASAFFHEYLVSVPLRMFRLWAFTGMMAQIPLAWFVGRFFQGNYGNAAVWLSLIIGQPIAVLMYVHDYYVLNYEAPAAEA
Experiment: Human DGAT1 IC50 enzyme assay (Flashplate, 14C-labeled acyl-CoA)
Assay type: biochemical
Set-up: made in house
Method: The ability of compounds to inhibit DGAT enzyme activity is determined by calculating IC50 values of test compounds. Ki values of DGAT1 are calculated as follows: Cheng-Prusoff equation: Ki=IC50/(1+[S]/Km)
(1) Human DGAT1 IC50 (nM) Experiment
Human DGAT1 activity was determined as follows:
Expressing human DGAT1 enzyme, used diacylglycerol and 14C-labeled acyl-CoA as the substrate, choose PE Company Flashplate testing board to build DGAT1 enzyme reaction system. 14C-labeled acyl-CoA binds to diacylglycerol by covalent bonding after enzymology reaction, and generates the product of 14C-labeled triglyceride. 14C-labeled acyl-CoA substrate is dissolved in reaction solution and 14C-labeled triglyceride product combine with phospholipids of Flashplate plate bottom layer, thus effectively separate labeled substrates and products. The radioactive of 14C-labeled triglyceride which is combined with phospholipid layer is counted, and the potencies of DGAT-1 inhibition for the compounds are determined by calculating the IC50 values.

[1] = average of first and second, read-out: hDGAT1 IC50(nM) Average
[2] = first determination, read-out: hDGAT1 IC50(nM) First
[3] = second determination, read-out: hDGAT1 IC50(nM) Second

Structure (SMILES)	IC50 [1] [nM]	IC50 [2] [nM]	IC50 [3] [nM]
Nc1ncnc2c1C(=O)N(c1ccc(N3CCN(CC4CC4)C3=O)c(Cl)c1)CCO2 [Compound 30, 4-amino-6-(3-chloro-4-(3-(cyclopropylmethyl)-2-oxoimidazolidin-1-yl)phenyl)-7,8-dihydropyrimido [5,4-f][1,4]oxazepin-5(6H)-one]	24.4	25.4	23.4
Nc1ncnc2c1C(=O)N(c1ccc(N3CCN(CCC(=O)O)C3=O)c(Cl)c1)CCO2 [Compound 6]	31.5	24.4	38.5
Cc1nn(CC(=O)O)cc1-c1ccc(N2CCOc3ncnc(N)c3C2=O)cc1Cl [Compound 36, 2-(4-(4-(4-amino-5-oxo-7,8-dihydropyrimido[5,4-f][1,4]oxazepin-6(5H)-yl)-2-chlorophenyl)-3-methyl-1H-pyrazol-1-yl)acetic acid]	29.3	37.7	21
CCc1cc(N2CCOc3ncnc(N)c3C2=O)cc(C)c1N1CCN(CC(=O)O)C1=O [Compound 4, 2-(3-(4-(4-amino-5-oxo-7,8-dihydropyrimido[5,4-f][1,4]oxazepin-6(5H)-yl)-2-ethyl-6-methylphenyl)-2-oxoimidazolidin-1-yl)acetic acid]	39.5	46.2	32.9
Cc1cc(N2CCOc3ncnc(N)c3C2=O)cc(C)c1-c1cn(CC(=O)O)nc1C [Compound 73, 2-(4-(4-(4-amino-5-oxo-7,8-dihydropyrimido [5,4-f][1,4]oxazepin-6(5H)-yl)-2,6-dimethylphenyl)-3-methyl-1H-pyrazol-1-yl)acetic acid]	34.4	24.5	44.3
Cc1cc(N2CCOc3ncnc(N)c3C2=O)cc(C)c1-c1cnn(C(C)(C)C(=O)O)c1 [Compound 66, 2-(4-(4-(4-amino-5-oxo-7,8-dihydropyrimido [5,4-f][1,4]oxazepin-6(5H)-yl)-2,6-dimethylphenyl)-1H-pyrazol-1-yl)-2-methylpropanoic acid]	42.6	47.1	38.2
CC(C)(Cn1cc(-c2ccc(N3CCOc4ncnc(N)c4C3=O)cc2Cl)cn1)C(=O)N1CCCC1 [Compound 85]	61.7	59.6	63.7
Cc1cc(N2CCOc3ncnc(N)c3C2=O)cc(C)c1-c1cnn(CCC(=O)O)c1 [Compound 70, 3-(4-(4-(4-amino-5-oxo-7,8-dihydropyrimido [5,4-f][1,4]oxazepin-6(5H)-yl)-2,6-dimethylphenyl)-1H-pyrazol-1-yl)propanoic acid]	20.4	27.6	13.2
Nc1ncnc2c1C(=O)N(c1ccc(N3CCN(CC(=O)O)C3=O)c(OC(F)(F)F)c1)CCO2 [Compound 7, 2-(3-(4-(4-amino-5-oxo-7,8-dihydropyrimido[5,4-f][1,4]oxazepin-6(5H)-yl)-2-(trifluoromethoxy)phenyl)-2-oxoimidazolidin-1-yl)acetic acid]	36.9	43.5	30.4
CCc1cc(N2CCOc3ncnc(N)c3C2=O)ccc1N1CCN(CC(=O)O)C1=O [Compound 5, 2-(3-(4-(4-amino-5-oxo-7,8-dihydropyrimido[5,4-f][1,4]oxazepin-6(5H)-yl)-2-ethylphenyl)-2-oxoimidazolidin-1-yl)acetic acid]	60.3	51.6	69
Cc1cc(N2CCOc3ncnc(N)c3C2=O)ccc1-c1cnn(C(C(=O)O)C(C)C)c1 (stereo not drawn) [Compound 59, 2-(4-(4-(4-amino-5-oxo-7,8-dihydropyrimido [5,4-f][1,4]oxazepin-6(5H)-yl)-2-methylphenyl)-1H-pyrazol-1-yl)-3-methylbutanoic acid]	80.3	54.9	106
CCc1cc(N2CCOc3ncnc(N)c3C2=O)cc(CC)c1N1CCN(CC(=O)O)C1=O [Compound 19]	101	136	66.5
CC(C)CN1CCN(c2ccc(N3CCOc4ncnc(N)c4C3=O)cc2Cl)C1=O [Compound 29, 4-amino-6-(3-chloro-4-(3-isobutyl-2-oxoimidazolidin-1-yl)phenyl)-7,8-dihydropyrimido [5,4-f][1,4]oxazepin-5(6H)-one]	35.2	37.4	32.9
Nc1ncnc2c1C(=O)N(c1ccc3c(c1)CCC(OCC(F)(F)F)C3)CCO2 (single isomer, unassigned; peak1) [Compound 105 (peak1), 4-amino-6-(6-(2,2,2-trifluoroethoxy)-5,6,7,8-tetrahydonaphthalen-2-yl)-7,8-dihydropyrimido[5,4-f][1,4]oxazepin-5-(6H)-one]	73.3	103	43.3
Nc1ncnc2c1C(=O)N(c1ccc(N3CCN(CC(=O)O)C3=O)c(Cl)c1)CCO2 [Compound 1, 2-(3-(4-(4-amino-5-oxo-7,8-dihydropyrimido[5,4-f][1,4]oxazepin-6(5H)-yl)-2-chlorophenyl)-2-oxoimidazolidin-1-yl)acetic acid]	48.1	53.3	43
Nc1ncnc2c1C(=O)N(c1ccc(N3CCN(CC(=O)O)C3=O)c(F)c1)CCO2 [Compound 2, 2-(3-(4-(4-amino-5-oxo-7,8-dihydropyrimido[5,4-f][1,4]oxazepin-6(5H)-yl)-2-fluorophenyl)-2-oximidazolidin-1-yl)acetate acid]	52.9	64.1	41.6
Cc1cc(N2CCOc3ncnc(N)c3C2=O)cc(C)c1-c1cnn(CC(=O)O)c1 [Compound 67, 2-(4-(4-(4-amino-5-oxo-7,8-dihydropyrimido [5,4-f][1,4]oxazepin-6(5H)-yl)-2,6-dimethylphenyl)-1H-pyrazol-1-yl)acetic acid]	53.2	56.1	50.3

Further lines, results first:

IC50 [1] [nM]	IC50 [2] [nM]	IC50 [3] [nM]	Structure (SMILES)
59.1	63.1	55.1	COC(C)(C)Cn1cc(-c2ccc(N3CCOc4ncnc(N)c4C3=O)cc2Cl)cn1 [Compound 94, 4-amino-6-(3-chloro-4-(1-(2-methoxy-2-methylpropyl)-1H-pyrazol-4-yl)phenyl)-7,8-dihydropyrimido[5,4-f][1,4]oxazepin-5(6H)-one]
60	62	58	CCc1cc(N2CCOc3ncnc(N)c3C2=O)ccc1-c1cnn(CC(C)C)c1 [Compound 90, 4-amino-6-(3-ethyl-4-(1-isobutyl-1H-pyrazol-4-yl)phenyl)-7,8-dihydropyrimido [5,4-f][1,4]oxazepin-5(6H)-one]
25.7	27	24.4	CC(C)(C)Cn1cc(-c2ccc(N3CCOc4ncnc(N)c4C3=O)cc2Cl)cn1 [Compound 88]
70.5	69.4	71.7	CC(C)Cn1cc(-c2ccc(N3C(=O)c4c(N)ncnc4OC[C@H]3C)cc2Cl)cn1 [Compound 96, (R)-4-amino-6-(3-chloro-4-(1-isobutyl-1H-pyrazol-4-yl)phenyl)-7-methyl-7,8-dihydropyrimido[5,4-f][1,4] oxazepin-5-(6H)-one]
95.6	89	102	NC(=O)Cn1cc(-c2ccc(N3CCOc4ncnc(N)c4C3=O)cc2Cl)cn1 [Compound 46, 2-(4-(4-(4-amino-5-oxo-7,8-dihydropyrimido[5,4-f][1,4]oxazepin-6(5H)-yl)-2-chlorophenyl)-1H-pyrazol-1-yl)acetamide]
20	12.5	27.5	CC(C)(F)Cn1cc(-c2ccc(N3CCOc4ncnc(N)c4C3=O)cc2Cl)cn1 [Compound 91, 4-amino-6-(3-chloro-4-(1-(2-fluoro-2-methylpropyl)-1H-pyrazol-4-yl)phenyl)-7,8-dihydropyrimido[5,4-f][1,4]oxazepin-5(6H)-one]
51.8	65.8	37.7	Nc1ncnc2c1C(=O)N(c1ccc(-c3cnn(CC(=O)O)c3)c(Cl)c1)CCO2 [Compound 56, 2-(4-(4-(4-amino-5-oxo-7,8-dihydropyrimido [5,4-f][1,4]oxaxepin-6(5H)-yl)-2-chlorophenyl)-1H-pyrazol-1-yl)acetic acid]
59.6	75	44.2	CC(C)(O)Cn1cc(-c2ccc(N3CCOc4ncnc(N)c4C3=O)cc2Cl)cn1 [Compound 42, 4-amino-6-(3-chloro-4-(1-(2-hydroxy-2-methylpropyl)-1H-pyrazol-4-yl)phenyl)-7,8-dihydropyrimido[5,4-f][1,4]oxazepin-5(6H)-one]
80.7	71.2	90.1	CN(C)C(=O)C(C)(C)Cn1cc(-c2ccc(N3CCOc4ncnc(N)c4C3=O)cc2Cl)cn1 [Compound 89, 3-(4-(4-(4-amino-5-oxo-7,8-dihydropyrimido [5,4-f][1,4]oxazepin-6(5H)-yl)-2-chlorophenyl)-1H-pyrazol-1-yl)-N,N,2,2-tetramethylpropanamide]
